# Earlier results in article PMC9207678 (Journal of Mass Spectrometry and Advances in the Clinical …, 2022).
# Conditions: ratio to insulin, ref [2], [3]
substance,measurement,value
C-peptide,half-life in circulation relative to insulin,6–10 times
